# According to BindingDB's records for doi:10.1021/acsmedchemlett.7b00169 (2017):
# Tested on: Enterococcus faecalis
# Assay: Antimicrobial activity against vancomycin-resistant Enterococcus faecalis NCTC12201 after 8 hrs
smiles,measurement,value
Nc1c(O)cccc1C(=O)C[C@H](N)C(=O)O,IC50,30 µM
